This is an account of results in patent publication US4251539A, “Amino derivatives of 3-alkyl-5-(2-hydroxystyryl)-isoxazoles” (BASF Aktiengesellschaft, priority 1978, dated 1981).

Broadly, the LD50 is the dose at which mortality reaches 50%. High values mean lower toxicity, low ones greater toxicity.

The structures appear in SMILES notation.

One data set can be described thus: in vivo. To be noted: for LD 50 / toxicity compared with propranolol (in words): i.p., mice. The source says: 4. Acute toxicity in mice
The period of observation is 1 week.
(4) Intraperitoneal administration to mice.

Data set [1] deals with blood pressure in the carotid artery. The data set can be described thus: animal or person. As to conditions: for ED20: Rattus norvegicus, iv, read-out: Blood pressure-lowering action ED 20%; for animals died: 10 mg/kg, rats. The procedure: 2. Blood pressure-lowering action on narcotized rats.
The blood pressure in the carotid artery is measured by means of a Statham transducer.
(2) Intravenous administration to rats under urethane narcosis. ED 20% =
dose, in mg/kg, which lowers the blood pressure by 20%.

Data set [2] concerns isoproterenol-induced tachycardia. As to conditions: for ED50: Felis catus, read-out: β-Sympatholytic action ED 50%; for ED50 / β-Sympatholytic action R.A. (relative activity): iv; for β-sympatholytic activity (in words) / β-Sympatholytic action R.A. (relative activity): in vivo.
A further data set deals with systolic blood pressure. The data set is described as follows: Anti-hypertensive action on spontaneously hypertonic rats (oral). The format is in vivo, male spontaneously hypertonic Okamoto rats. The procedure:
3. Anti-hypertensive action on spontaneously hypertonic rats.
The substances are administered orally to groups of 8 male spontaneously hypertonic Okamoto rats (weight 280-350 g). Before, and two hours after, the administration the systolic blood pressure is measured non-surgically on the rats' tails by means of piezoelectric crystal sensors.

Data set [3] deals with blood pressure in the carotid artery. As to conditions: general statement, no test or species given; cited from earlier work.
[4] abbreviates: 0.001 mg/kg i.v., cats under hexobarbital narcosis, average.

Turning to `Cc1cc(C=Cc2ccccc2OCC(O)CNC(C)C)on1` (stereo not drawn) [Example 1, 3-Methyl-5-[2-(2-hydroxy-3-isopropyl-aminopropoxy)-styryl]-isoxazole], the “LD 50 / toxicity compared with propranolol (in words)” value in “in vivo” is listed as “of the same toxicity, or somewhat more toxic”. Also, in data set [1], the ED20 stood at 0.65 mg/kg. Moreover, in data set [2], the ED50 came to 0.0077 mg/kg and the “β-sympatholytic activity (in words)” value is “high activity”.
Consider `Cc1cc(C=Cc2ccccc2OCC(O)CNC(C)(C)C)on1` (stereo not drawn) [Example 3, 3-Methyl-5-[2-(2-hydroxy-3-tert.-butylaminopropoxy)-styryl]-isoxazole], for which the ED20 with systolic blood pressure (Rattus norvegicus, po, 2 h, read-out: Anti-hypertensive action ED 20%) was 14.5 mg/kg; in data set [1], 0.4 mg/kg. For the same compound, the “LD 50 / toxicity compared with propranolol (in words)” value in “in vivo” was “somewhat higher than that of propranolol”. Besides, the animals died in data set [1] (i.v.) is 1 out of 6. Also, the “Blood pressure-lowering action ED 20%” value in data set [1] (i.v., rats under urethane narcosis, dose lowering mean carotid artery pressure by 20%) was 0.40 mg/kg. In addition, in data set [2], the ED50 stood at 0.0055 mg/kg.
Regarding `CCc1cc(C=Cc2ccccc2OCC(O)CNC2CC2)on1` (stereo not drawn) [Example 5, 3-Ethyl-5-[2-(2-hydroxy-3-cyclopropylaminopropoxy)-styryl]-isoxazole], in “in vivo”, the “LD 50 / toxicity compared with propranolol (in words)” value is on record as “of the same toxicity, or somewhat more toxic”. For the same compound, the LD50 at 168 h in “in vivo” (mouse, in vivo, ip) was 95 mg/kg. Besides, the ED20 in data set [1] was found to be 0.83 mg/kg. Also, in data set [2], the ED50 was determined as 0.12 mg/kg and the “β-Sympatholytic action R.A. (relative activity)” value amounted to 0.9.
On to `CCc1cc(C=Cc2ccccc2OCC(O)CNC(C)(C)C)on1` (stereo not drawn) [Example 6, 3-Ethyl-5-[2-(2-hydroxy-3-tert.-butylaminopropoxy)-styryl]-isoxazole], for which the “LD 50 / toxicity compared with propranolol (in words)” value in the data set “in vivo” was “of the same toxicity, or somewhat more toxic”. For the same compound, in data set [1], the ED20 is 0.93 mg/kg. Also, in data set [2], the ED50 was found to be 0.018 mg/kg, the “β-sympatholytic activity (in words)” value is recorded as “high activity” and the “β-Sympatholytic action R.A. (relative activity)” value is reported as 6.1.
Take `C#CC(C)(C)NCC(O)COc1ccccc1C=Cc1cc(C)no1` (stereo not drawn) [Example 13, 3-Methyl-5-[2-(2-hydroxy-3-(3-methyl-but-1-ynyl-3-amino)-propoxy)-styryl]-isoxazole]: the “LD 50 / toxicity compared with propranolol (in words)” value in “in vivo” is on record as “more than twice as high as that of propranolol”. In addition, the ED20 in data set [1] was determined as 1 mg/kg. In data set [2], the ED50 is 0.017 mg/kg and the “β-Sympatholytic action R.A. (relative activity)” value is 6.5.
On to `CC(C)NCC(O)COc1cccc2ccccc12` (stereo not drawn) [Propranolol, reference compound], for which the “anti-hypertensive action, oral (in words)” value in the data set with systolic blood pressure (oral, spontaneously hypertonic rats, propranolol up to a dose of 100 mg/kg) is given as “ineffective”. The animals died in data set [1] (i.v.) is recorded as 2 out of 6. Further, the “anti-hypertensive action of conventional β-sympatholytic agents (in words)” value in data set [3] is “only exhibit an anti-hypertensive action on lengthy administration”. In addition, the ED50 in data set [2] was determined as 0.11 mg/kg.
Take `CC(C)NCC(O)c1ccc(O)c(O)c1` (stereo not drawn) [isoproterenol, reference compound]: in data set [2] (setting [4]), the “increase of pulse rate” value was determined as 61 beats and the “increase of pulse rate, percent” value came to 40%.
